Results: US20190374554A1, “USE OF OXYGENATED CHOLESTEROL SULFATES (OCS) TO TREAT INFLAMMATORY SKIN DISEASE AND SKIN LESIONS” (Virginia Commonwealth University, priority 2016, published 2019)

Legend:
[1] = Infusion compatibility: 25HC3S diluted in 5% dextrose infusion bag and eluted through infusion sets (potency, osmolality, pH, appearance); format: physicochemical
Description: A physical and chemical compatibility study was conducted at a 30 mg, 48 mg and 300 mg 25HC3S dose in 5% dextrose and 0.9% sodium chloride infusion bags. Descriptions of the two kinds of infusion sets tested with 25HC3S product diluted in 5% dextrose and 0.9% sodium chloride are listed in Table 15. The tubing in catalog number 2H8480 infusion set was composed of polyvinylchloride (PVC), while the tubing in catalog number 2C8858 was polyethylene lined except for a short pump segment (approximately 12 inches) which was composed of PVC.
25HC3S for Injection and Vehicle for 25HC3S for Injection, that had been stored at 2-8° C. for approximately 16 months, were used for the compatibility study. After constitution, 30 mg (1.0 mL of constituted product), 48 mg (1.6 mL of constituted product) or 300 mg (10 mL of constituted product) were added to 100 mL infusion bags of 5% dextrose and 0.9% sodium chloride, mixed thoroughly, and stored for 24 hours at room temperature and at 2-8° C. […] Taking into consideration the overfill per infusion bag and the additional volume introduced by adding the constituted 25HC3S product to each bag, the expected concentrations of 25HC3S were 0.28 mg/mL, 0.44 mg/mL, and 2.56 mg/mL in the infusion bags. Two kinds of infusion sets were then attached to the drug containing infusion bags, and the entire contents were eluted through the infusion sets at approximately 50 mL/hour at room temperature. Samples were collected from the 25HC3S prepared infusion bags at T=0 and at 24 hours, and from the total eluent passed through the infusion sets, and tested for 25HC3S concentration using HPLC. Solution visual appearance, osmolality (using method USP<785>), and pH (using method USP<791>) were also measured on the collected samples.

[2] = test system: Beagle dogs; test: Two-week SC injection study in dogs; format: in vivo
Description: In a separate study, Beagle dogs (n=4/sex/dose group) received daily SC injections for 2 weeks. The solution that was tested included 30 mg/mL of 25HC3 S sodium salt in vehicle (250 mg/mL hydroxypropyl-β-cyclodextrin in 10 mM sodium phosphate buffer). Dose levels of 0 (vehicle), 3, 10 and 30 mg/kg of 25HC3S were administered in dose volumes of 1.0, 0.1, 0.33 and 1.0 mL/kg. Following 14 days of dose administration, all dogs were euthanized and necropsied.

[3] = test system: Hannover Wistar rats; test: Two-week subcutaneous (SC) injection study in rats; format: in vivo
Description: In a separate study, Hannover Wistar rats (n=12/sex/dose group) received daily SC injections of a solution of 30 mg/mL of 25HC3S sodium salt in vehicle (250 mg/mL hydroxypropyl-β-cyclodextrin in 10 mM sodium phosphate buffer in sterile water) for 2 weeks. Dose levels of 0 (vehicle), 15, 45 and 150 mg/kg of 25HC3S sodium salt were administered in dose volumes of 5.0, 0.5, 1.5 and 5.0 mL/kg. Following 14 days of dose administration, all rats were euthanized and necropsied

[4] = 5% dextrose, approx. 0.44 mg/mL, bag 24 h at 2-8° C., Baxter 2C8858
[5] = 5% dextrose, approx. 0.44 mg/mL, bag 24 h at 2-8° C., Baxter 2H8480
[6] = 5% dextrose, approx. 0.44 mg/mL, bag 24 h at 25° C., Baxter 2C8858
[7] = 5% dextrose, approx. 0.44 mg/mL, bag 24 h at 25° C., Baxter 2H8480
[8] = 5% dextrose, approx. 2.56 mg/mL, bag 24 h at 2-8° C., Baxter 2C8858
[9] = 5% dextrose, approx. 2.56 mg/mL, bag 24 h at 2-8° C., Baxter 2H8480
[10] = 5% dextrose, approx. 2.56 mg/mL, bag 24 h at 25° C., Baxter 2C8858
[11] = 5% dextrose, approx. 2.56 mg/mL, bag 24 h at 25° C., Baxter 2H8480
[12] = dextrose drug containing solutions

SMILES: C[C@H](CCCC(C)(C)O)[C@H]1CC[C@H]2[C@@H]3CC=C4C[C@@H](OS(=O)(=O)[O-])CC[C@]4(C)[C@H]3CC[C@]12C.[Na+] [Formulation 25HC3S, 5-cholesten-3, 25-diol, 3-sulfate]
- After Storage in Infusion Bag and Collection from Infusion Set pH ([1]; 5% dextrose, approx. 0.28 mg/mL, bag 24 h at 25° C., Baxter 2H8480): 6.99
- After Storage in Infusion Bag and Collection from Infusion Set % Remaining Compared to T = 0 [1, 4]: (100.2%)
- After Storage in Infusion Bag and Collection from Infusion Set Concentration [1, 4]: 0.440 mg/mL
- After Storage in Infusion Bag and Collection from Infusion Set Osmolality [1, 4]: 255 mmol/kg
- After Storage in Infusion Bag and Collection from Infusion Set pH [1, 4]: 6.93
- After Storage in Infusion Bag and Collection from Infusion Set % Remaining Compared to T = 0 [1, 5]: (100.2%)
- After Storage in Infusion Bag and Collection from Infusion Set Concentration [1, 5]: 0.440 mg/mL
- After Storage in Infusion Bag and Collection from Infusion Set Osmolality [1, 5]: 257 mmol/kg
- After Storage in Infusion Bag and Collection from Infusion Set pH [1, 5]: 6.91
- After Storage in Infusion Bag and Collection from Infusion Set % Remaining Compared to T = 0 [1, 6]: (100.0%)
- After Storage in Infusion Bag and Collection from Infusion Set Concentration [1, 6]: 0.442 mg/mL
- After Storage in Infusion Bag and Collection from Infusion Set Osmolality [1, 6]: 253 mmol/kg
- After Storage in Infusion Bag and Collection from Infusion Set pH [1, 6]: 6.90
- After Storage in Infusion Bag and Collection from Infusion Set % Remaining Compared to T = 0 [1, 7]: (100.2%)
- After Storage in Infusion Bag and Collection from Infusion Set Concentration [1, 7]: 0.448 mg/mL
- After Storage in Infusion Bag and Collection from Infusion Set Osmolality [1, 7]: 253 mmol/kg
- After Storage in Infusion Bag and Collection from Infusion Set pH [1, 7]: 6.91
- After Storage in Infusion Bag and Collection from Infusion Set % Remaining Compared to T = 0 [1, 8]: (100.4%)
- After Storage in Infusion Bag and Collection from Infusion Set Concentration [1, 8]: 2.535 mg/mL
- After Storage in Infusion Bag and Collection from Infusion Set Osmolality [1, 8]: 248 mmol/kg
- After Storage in Infusion Bag and Collection from Infusion Set pH [1, 8]: 6.10
- After Storage in Infusion Bag and Collection from Infusion Set % Remaining Compared to T = 0 [1, 9]: (100.4%)
- After Storage in Infusion Bag and Collection from Infusion Set Concentration [1, 9]: 2.540 mg/mL
- After Storage in Infusion Bag and Collection from Infusion Set Osmolality [1, 9]: 247 mmol/kg
- After Storage in Infusion Bag and Collection from Infusion Set pH [1, 9]: 5.99
- After Storage in Infusion Bag and Collection from Infusion Set % Remaining Compared to T = 0 [1, 10]: (101.4%)
- After Storage in Infusion Bag and Collection from Infusion Set Concentration [1, 10]: 2.545 mg/mL
- After Storage in Infusion Bag and Collection from Infusion Set Osmolality [1, 10]: 251 mmol/kg
- After Storage in Infusion Bag and Collection from Infusion Set pH [1, 10]: 6.00
- After Storage in Infusion Bag and Collection from Infusion Set % Remaining Compared to T = 0 [1, 11]: (99.2%)
- After Storage in Infusion Bag and Collection from Infusion Set Concentration [1, 11]: 2.480 mg/mL
- After Storage in Infusion Bag and Collection from Infusion Set Osmolality [1, 11]: 261 mmol/kg
- After Storage in Infusion Bag and Collection from Infusion Set pH [1, 11]: 6.01
- deviation of 25HC3S concentrations from the initial T=0 time point ([1]; 5% dextrose, after 24 hours at room temperature and at 2-8° C., and after elution through infusion sets): ≤ 1.4%
- osmolality trend [1, 12]: no consistent trends over time in the infusion bag or after elution through the infusion sets
- pH trend [1, 12]: no trends over time or after elution through the infusion sets
- solution visual appearance ([1]; dextrose, all three concentrations, after 24 hours in bags and after elution): remained as clear and colorless solutions
- swelling at the site of injection ([2]; daily SC 2 weeks, compared to vehicle only (FIG. 1C)): markedly decreased
- fibroplasia, hemorrhage, inflammation and necrosis in injection sites: incidence and severity ([2]; daily SC 3, 10, 30 mg/kg, 2 weeks (FIG. 1B)): generally higher in vehicle controls compared to drug-treated dogs
- higher mean liver weights compared to controls ([3]; male and female rats, 150 mg/kg daily SC, 2 weeks): 10%
- lower mean serum cholesterol compared to vehicle controls ([3]; male rats, 150 mg/kg daily SC, after 2 weeks): 22%
- Cytoplasmic vacuolation of the proximal tubules of the kidneys ([3]; rats, 150 mg/kg daily SC, 2 weeks, vs vehicle controls): severity was similar in vehicle control and rats
- collagen degeneration and hemorrhage at the injection sites ([3]; rats, daily SC 2 weeks, compared to vehicle (FIG. 1A)): tended to be lower
- alveolar macrophages in the lungs ([3]; rats, daily SC 2 weeks, seen in vehicle controls and drug-treated rats): minimal increase
